# Data reported in patent US10076520B2, “Use of tyrosine kinase inhibitor in cancer treatment” (THE REGENTS OF THE UNIVERSITY OF COLORADO, A BODY CORPORATE, priority 2013, dated 2018).
# What was measured:
# [1] = system: ParC5 cells; assay: Irradiation-induced apoptosis (caspase-3 activity) in ParC5 cells; format: cell-based, rat; conditions: parC5 cells pre-treated 30 mins prior to 10 Gy irradiation; harvested after 18 hrs; p<0.05
# Experimental: Cells were harvested after an additional 18 hrs and casapase 3 activity were measured.
# [2] = system: PKCδ; assay: Immunoblot of PKCδ tyrosine phosphorylation in ParC5 cells treated with hydrogen peroxide; format: cell-based, rat; conditions: ParC5 cells pre-treated 30 mins prior to hydrogen peroxide
smiles,measurement,setting,value
Cc1ccc(NC(=O)c2ccc(CN3CCN(C)CC3)cc2)cc1Nc1nccc(-c2cccnc2)n1 [imatinib],apoptosis (caspase 3 activity),[1],significant protection from apoptosis
same,"phosphorylation of PKCδ at Y64, Y155 and Y311",[2],inhibited phosphorylation of PKCδ at Y155 only
